Measurements published in patent US4921887A, “Thiazole compounds and pharmaceutical composition comprising the same” (Fujisawa Pharmaceutical Company, Ltd., priority 1987, dated 1990).
Values after ≈ are worked out from the molar mass of the structure shown.

Key:
[1] = test system: anaphylactic asthma in guinea pigs; experiment: Antagonistic action on anaphylactic asthma in guinea pigs; type: in vivo, guinea pigs (male Hartley-strain); conditions: Cavia porcellus; oral, 30 minutes prior to egg-white albumin aerosol; survival not less than 2 hours after antigen spraying; read-out: Prophylactic Effect ED50
Description: Antagonistic action on anaphylactic asthma in guinea pigs
Male Hartley-strain guinea pigs weighing 305-400 g were used. These animals were sensitized by intravenous injection of 0.5 ml/animal of rabbit antiserum to egg-white albumin (PCA antibody titer 4,000). After 24 hours, the animals were housed individually in 5.3-liter plastic chambers. Using a commercial sprayer, a 5% egg-white albumin solution was sprayed in the form of an aerosol into each chamber at a rate of 0.16 ml/min for 2 minutes. Thirty minutes prior to the spraying of the egg-white albumin solution, the test compound was administered orally in varied concentrations. Each dosed group consisted of 5 animals. The prophylactic effect to anaphylaxis was expressed in terms of the ED50 value determined on the basis of the number of guinea pigs which had survived for not less than 2 hours after antigen spraying for each administration concentration of the test compound.

[2] = test system: SRS-A synthesis or release from peritoneal exudate cells (5-lipoxygenase); experiment: Anti-SRS-A activity (5-lipoxygenase inhibitory activity); type: cell-based, SD rats; conditions: A23187 (1 μg/ml)-stimulated rat peritoneal exudate cells, indomethacin 10 μg/ml; SRS-A by contractility of isolated guinea pig ileum; read-out: Inhibitory Concentration IC50
Description: Anti-SRS-A activity (5-lipoxygenase inhibitory activity)
Peritoneal exudate cells were collected from glycogen-injected SD rats and adjusted to 1×10^7 cells/ml with Tyrode's solution. One milliliter of the cell suspension was incubated with indomethacin (10 μg/ml) and each varied concentration of the test compound for 10 minutes and, then, further incubated with Ca^++ -ionophore (A23187, 1 μg/ml) for 10 minutes. The supernatant was collected by centrifugation and the SRS-A (slow-reacting substance of anaphylaxis) activity was determined in terms of contractility of the isolated guinea pig ileum in the presence of mepyramine, atropine and methysergide.
The results were expressed in terms of the 50% inhibitory concentration to SRS-A synthesis or release from peritoneal exudate cells.

| SMILES | ED50 [1] | IC50 [2] |
| --- | --- | --- |
| CS(=O)(=O)Nc1nc(CN2CCC(OC(c3ccccc3)c3ccccc3)CC2)cs1 [Compound A, 2-Mesylamino-4-[4-(diphenylmethoxy)piperidinomethyl]thiazole] | 0.03 mg/kg | – |
| CCC(=O)Nc1nc(CN2CCC(OC(c3ccccc3)c3ccccc3)CC2)cs1 [Compound B, 2-Propionylamino-4-[4-(diphenylmethoxy)piperidinomethyl]thiazole] | – | 0.023 µg/mL (≈ 0.0528 µM) |
| CCCC(=O)Nc1nc(CN2CCC(OC(c3ccccc3)c3ccccc3)CC2)cs1 [Compound C, 2-Butyrylamino-4-[4-(diphenylmethoxy)piperidinomethyl]thiazole] | – | 0.023 µg/mL (≈ 0.0512 µM) |
| O=C(Nc1nc(CN2CCC(OC(c3ccccc3)c3ccccc3)CC2)cs1)C1CC1 [Compound D, 2-Cyclopropylcarbonylamino-4-[4-(diphenylmethoxy)piperidinomethyl]thiazole] | – | 0.011 µg/mL (≈ 0.0246 µM) |
| C[C@@H](O)C(=O)Nc1nc(CN2CCC(OC(c3ccccc3)c3ccccc3)CC2)cs1 [Compound E, 2-(D-Lactoylamino)-4-[4-(diphenylmethoxy)piperidinomethyl]thiazole] | – | 0.015 µg/mL (≈ 0.0332 µM) |
| CCOC(=O)Nc1nc(CN2CCC(OC(c3ccccc3)c3ccccc3)CC2)cs1 [Compound F, 2-Ethoxycarbonylamino-4-[4-(diphenylmethoxy)piperidinomethyl]thiazole] | – | 0.014 µg/mL (≈ 0.031 µM) |
| CNC(=O)Nc1nc(CN2CCC(OC(c3ccccc3)c3ccccc3)CC2)cs1 [Compound G, 2-(3-Methylureido)-4-[4-(diphenylmethoxy)piperidinomethyl]thiazole] | – | 0.015 µg/mL (≈ 0.0344 µM) |
